Key:
Assay type in all cases: in vivo, rat
[1] = system: 5/6 nx uremic rats; test: Aortic calcification (Von Kossa, pathologist score) in 5/6-nephrectomy model of CKD and secondary HPT; conditions: for aortic calcification severity (Von Kossa calcification score): 5/6Nx male SD rats, uremia established 8 weeks, treatment week 4, Fc-IL-1ra 100 mg/kg/day s.c., calcitriol 30 ng
Description: We administered the IL-1 receptor antagonist Fc-IL-1ra, calcitriol, the combination of Fc-IL-1ra+calcitriol) or their corresponding vehicles to a rodent animal model of chronic kidney disease (CKD) and secondary hyperparathyroidism (SHPT) induced by subtotal nephrectomy (5/6Nx). The experimental paradigm is shown in FIG. 5, with the treatment groups set out in Table 2 below.
Aortas were removed at treatment week 4 (trt wk4), fixed and stained for mineralization (Von Kossa) and the severity determined and scored by a pathologist blinded to the treatments (Calcification Scores: 0=no calcification; 1=minimal; 2=mild; 3=moderate; 4=marked; 5=severe).

[2] = system: adenine-induced CKD/SHPT rats; test: Aortic vascular calcification (bone mineral density of isolated aortas, Dxa scanner) in adenine model of CKD/SHPT
Description: (§1) Adenine, included as a dietary supplement (0.75%), was fed to adult, male Sprague-Dawley rats. Blood for chemistry analyses (total serum calcium, phosphorous, blood urea nitrogen [BUN], creatinine, PTH) was collected before and again on drug treatment days 0 (pretreatment) and 21 from the retro-orbital sinus of anesthetized rats. Blood (0.5 ml) was collected for PTH levels into SST (clot activator) brand blood tubes and allowed to clot. Serum was removed and stored at −70° C. until assayed. PTH levels were quantified according to the vendor's instructions using rat PTH (1-34) immunoradiometric assay kit (Immutopics, San Clemente, Calif.). Calcium and phosphorous were measured using a blood chemistry analyzer (AU 400; Olympus, Melville, N.Y.).
Vascular calcification was assessed by quantifying the bone mineral density from fixed (formalin, PBS), isolated aortas using a Dxa scanner (Piximus densitomer, GE Healthcare).

[3] = system: adenine-induced CKD/SHPT rats; test: Parathyroid gland size in adenine model of CKD/SHPT; conditions: FIG. 3A, p=0.009 vs A5S vehicle (n=13 vs n=8)
[4] = system: adenine-induced CKD/SHPT rats; test: Blood chemistry (BUN, creatinine, PTH) in adenine model of CKD/SHPT
Description: as §1

Compound | aortic calcification severity (Von Kossa calcification score) [1] | incidence of severe calcification ([1]; 5/6Nx uremic rats, treatment week 4, n=8 evaluated) | bone mineral density (aortic calcification) ([2]; adenine diet 0.75%, male Sprague-Dawley rats, Fc-IL-1ra n=7 vs A5S vehicle n=4, p=0.005 unpaired t-test) | development of aortic vascular calcification (bone mineral density content of the aorta) ([2]; adenine model, FIG. 2) | animals with no calcification ([2]; adenine model, Fc-IL-1ra-treated animals) | calcitriol (Vitamin D3)-induced aortic vascular calcification ([1]; 5/6Nx rats, Fc-IL-1ra 100 mg/kg/day s.c. + calcitriol 30 ng, week 4, FIG. 6) | size of the parathyroid gland [3] | BUN [4] | creatinine levels [4] | serum PTH levels ([4]; FIG. 3B, p=0.028 vs A5S vehicle (n=7 vs n=4))
C=C1/C(=C\C=C2/CCC[C@]3(C)[C@@H]([C@H](C)CCCC(C)(C)O)CC[C@@H]23)C[C@@H](O)C[C@@H]1O [calcitriol, 1α, 25-dihydroxycholecalciferol, reference compound] | marked to severe | 50% | – | – | – | – | – | – | – | –
Fc-IL-1ra: molecule having the sequence shown in FIG. 4 (SEQ ID NO: 1); fusion protein comprising IL-1ra; IL-1 receptor antagonist | did not cause vascular calcification | – | 0 g/cm2 | prevented | seven of seven | attenuated | reduced | did not affect | did not affect | decreased
